From ChEMBL document CHEMBL2069279, “Target fishing and docking studies of the novel derivatives of aryl-aminopyridines with potential anticancer activity” (Bioorg Med Chem, 2012) come the findings set out here.

In one experiment the test system is K562. Nature of the experiment: Cytotoxicity against human K562 cells after 72 hrs by MTT assay. It is filed as functional, cell-based. Particulars: K562, 72 h.
The subject of the next experiment is HeLa. Nature of the experiment: Cytotoxicity against human HeLa cells after 72 hrs by MTT assay. Format: functional, cell-based.
In experiment [1] the test system is PBMC. Nature of the experiment: Cytotoxicity against human PBMC cells in presence of phytohemagglutinin after 72 hrs by MTT assay. Format: cell-based.
For experiment [2], the system named is PBMC. Nature of the experiment: Cytotoxicity against human PBMC cells in absence of phytohemagglutinin after 72 hrs by MTT assay. Format: cell-based.
A short description of experiment [3]: Cytotoxicity against human Fem-X cells after 72 hrs by MTT assay. Format: functional, cell-based.
Where [4] appears, read: Homo sapiens, HeLa, 72 h, read-out: IC50.

SMILES strings stand for the structures.

As to `COc1ccc(Nc2ccc3ccccc3n2)cc1`, the IC50 in the experiment on K562 amounted to 30 µM; in the experiment on HeLa (setting [4]) it was 51 µM; in the experiment with PBMC [1] it was 70 µM; with PBMC [2], 91 µM; in experiment [3], 43 µM.
The matching figures for `COc1ccc(Nc2cc(-c3ccc(C)cc3)ccn2)cc1`: 19 µM, 43 µM, 34 µM, 52 µM and 33 µM.
The matching figures for `COc1ccc(Nc2cc(-c3cccc(C(F)(F)F)c3)ccn2)cc1`: 78 µM, 140 µM, 105 µM, 132 µM and 68 µM.
For `CCc1ccc(Nc2cc(-c3cccc(C(F)(F)F)c3)ccn2)cc1`, the IC50 (with HeLa (setting [4]); in experiment [3]) was more than 200 µM in each case.
Take `COc1cccc(Nc2cc(-c3cccc(C(F)(F)F)c3)ccn2)c1`: the IC50 (in the experiment on HeLa (setting [4]); in experiment [3]) was more than 200 µM throughout.
`COc1ccc(Nc2ccccn2)cc1`: the 50% inhibitory concentration (IC50) in the experiment on K562 turned out to be 63 µM; in the experiment with HeLa (setting [4]), 117 µM; with PBMC [1] it was 42 µM; in the experiment with PBMC [2], 46 µM; in experiment [3], 123 µM.
The matching figures for `COc1ccc(Nc2cccnc2)cc1`: 68 µM, 145 µM, 183 µM, 96 µM and 118 µM.
Taken in the same sequence, the figures for `Cc1ccc(-c2ccnc(Nc3ccc(F)cc3)c2)cc1` were 54 µM, 146 µM, 146 µM, 127 µM and 79 µM.
For the molecule `Fc1ccc(Nc2ccc3ccccc3n2)cc1`, the concentration for half-maximal inhibition (IC50) in the experiment on K562 came to 36 µM; in the experiment with HeLa (setting [4]) it was 33 µM; with PBMC [1], 65 µM; with PBMC [2], 90 µM; in experiment [3], 35 µM.
Taken in the same sequence, the figures for `COc1ccc(Nc2nc3ccccc3cc2-c2ccc(C)cc2)cc1` were 75 µM, 102 µM, 118 µM, 137 µM and 65 µM.
The matching figures for `COc1ccc(Nc2c(-c3ccc(OC)cc3)cnc3ccccc23)cc1`: 25 µM, 104 µM, 105 µM, 122 µM and 56 µM.
Taken in the same sequence, the figures for `COc1ccc(Nc2c(-c3ccccc3)cnc3ccccc23)cc1` were 25 µM, 64 µM, 62 µM, 72 µM and 35 µM.
For the molecule `COc1cccc(Nc2nc3ccccc3cc2-c2ccccc2)c1`, the IC50 is 76 µM in the experiment with K562; “ND(toxic)” in the experiment on HeLa (hela); 81 µM in the experiment with PBMC [1]; 119 µM with PBMC [2]; 129 µM in experiment [3].
With `CCc1ccc(Nc2nc3ccccc3cc2-c2ccccc2)cc1`, the IC50 with K562 turned out to be 99 µM; in the experiment with HeLa (setting [4]) it was 140 µM; in the experiment with PBMC [1] it was 66 µM; in the experiment on PBMC [2] it was 73 µM; in experiment [3] it was 92 µM.
